From US9567325B2, “Carboxamide compounds and their use as calpain inhibitors” (AbbVie Deutschland GmbH & Co. KG, priority 2009, dated 2017)

Key:
[1] = target: T1, calpain-1 isolated from human erythrocytes (Homo sapiens, UniProt P07384); assay: Calpain I enzyme inhibition in vitro, kinetic fluorescence assay; type: biochemical; conditions: apparent Ki calculated from IC50 by Cheng-Prussoff; 100 μM Suc-Leu-Tyr-AMC, pH 7.3, room temperature
T1 construct: 20 nM calpain-1-isolated from human erythrocytes (Calbiochem #208713); purchased Calbiochem 208713; host or cells: human erythrocytes (natural source)
T1 sequence (P07384 1-714): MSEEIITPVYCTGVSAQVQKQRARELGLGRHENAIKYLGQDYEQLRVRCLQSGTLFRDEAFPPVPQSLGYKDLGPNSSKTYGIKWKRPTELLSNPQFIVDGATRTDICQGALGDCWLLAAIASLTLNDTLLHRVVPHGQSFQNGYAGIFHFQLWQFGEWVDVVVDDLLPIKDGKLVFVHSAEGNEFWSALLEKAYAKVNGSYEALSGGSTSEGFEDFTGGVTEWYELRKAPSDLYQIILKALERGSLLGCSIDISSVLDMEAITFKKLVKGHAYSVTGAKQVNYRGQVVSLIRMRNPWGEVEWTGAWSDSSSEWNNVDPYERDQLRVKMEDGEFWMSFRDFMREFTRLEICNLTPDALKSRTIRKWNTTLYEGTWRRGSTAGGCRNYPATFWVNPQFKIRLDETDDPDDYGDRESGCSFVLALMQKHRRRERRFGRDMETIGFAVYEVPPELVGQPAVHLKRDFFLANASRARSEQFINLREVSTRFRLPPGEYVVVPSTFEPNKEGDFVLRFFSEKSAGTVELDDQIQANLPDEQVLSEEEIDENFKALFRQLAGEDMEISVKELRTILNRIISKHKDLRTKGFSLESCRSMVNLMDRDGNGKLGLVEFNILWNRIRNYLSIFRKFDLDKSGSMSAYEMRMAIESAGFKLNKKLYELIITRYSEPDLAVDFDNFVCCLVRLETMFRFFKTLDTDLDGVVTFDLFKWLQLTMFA
T1 sequence (P04632 1-268 partner): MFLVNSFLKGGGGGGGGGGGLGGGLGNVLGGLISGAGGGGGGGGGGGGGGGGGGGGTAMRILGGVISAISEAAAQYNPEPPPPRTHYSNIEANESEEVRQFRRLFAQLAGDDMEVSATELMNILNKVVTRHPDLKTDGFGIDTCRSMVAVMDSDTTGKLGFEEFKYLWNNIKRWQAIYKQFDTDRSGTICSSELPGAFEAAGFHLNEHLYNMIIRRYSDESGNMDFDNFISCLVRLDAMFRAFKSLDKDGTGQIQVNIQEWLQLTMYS
Procedure: (§1) The following solutions and buffers were employed: • HBS (for 40 ml): 800 μl 1M HEPES; 2.16 ml 100 mM KCl; 4.8 ml 1M NaCl; 3.59 ml 5% glucose; 60 μl 1M MgSO4; 400 μl 100 mM Na pyruvate, 28.19 ml water; pH 7.2-7.5. • lysis buffer (for 20 ml): 400 μl 1M Tris pH 8.2; 2.74 ml 1M NaCl; 520 μl 0.5M EDTA; 2 ml 10% triton X-100; 0.8 ml (=1:25) CompletePlus (1 tablet/2 ml H2O); 200 μl 100 mM Pefabloc; 13.34 ml water, pH 8.2. • TBST (10×) (for 11): 100 mM Tris (12.1 g); 1.5M NaCl (87 g); 1% Tween 20 (10 g), adjusted to pH 8. I Enzyme Inhibition In Vitro: • Testing for blockade of the corresponding enzymic activities was carried out by means of kinetic fluorescence assays (excitation 390 nm, emission 460 nm). • Apparent Ki values were calculated from the experimentally determined IC50 values by the Cheng-Prussoff relation assuming a reversible competitive enzyme inhibition. The Km values of the substrates used under the assay conditions indicated above were: 90 μM (Z-Phe-Arg-AMC, cathepsin B), 10 μM (Z-Gly-Pro-Arg-AMC, cathepsin K), 2 μM (Z-Phe-Arg-AMC, cathepsin L), and 30 μM (Z-Val-Val-Arg-AMC, cathepsin S). • The indicated Ki values are averages of the inhibition constants calculated on the basis of 2 to 4 independent dose-effect plots. • The following assays were used: • 1. Calpain I: • 20 nM calpain-1-isolated from human erythrocytes (Calbiochem #208713), 100 μM Suc-Leu-Tyr-AMC (Bachem #1-1355) as substrate in buffer with 62 mM imidazole, 0.3 mM CaCl2, 0.10% CHAPS, 0.05% BSA, 1 mM DTT at pH 7.3 and room temperature. • 2. Cathepsin B: • 0.25 nM cathepsin B—isolated from human liver (Calbiochem #219362), 100 μM Z-Phe-Arg-AMC (Bachem #1-1160) as substrate 50 mM MES, 2 mM EDTA, 0.05% Brij 35, 2.5 mM L-cysteine, pH 6.0, room temperature. • 3. Cathepsin K: • 3 nM cathepsin K-activated from recombinant human procathepsin K from E. coli (Calbiochem #342001), 10 μM Z-Gly-Pro-Arg-AMC (Biomol #P-142) as substrate in 50 mM MES, 2 mM EDTA, 0.05% Brij 35, 2.5 mM L-cysteine, pH 6.0, room temperature. • 4. Cathepsin L: • 1 nM cathepsin L—isolated from human liver (Calbiochem #219402), 2 μM Z-Phe-Arg-AMC (Bachem #1-1160) as substrate in 50 mM MES, 2 mM EDTA, 0.05% Brij 35, 2.5 mM L-cysteine, pH 6.0, room temperature. • 5. Cathepsin S: • 0.5 nM recombinant human cathepsin S from E. coli (Calbiochem #219343), 20 μM Z-Val-Val-Arg-AMC (Bachem #I-1540) as substrate in 50 mM MES, 2 mM EDTA, 0.05% Brij 35, 2.5 mM L-cysteine, pH 6.0, room temperature. • The results of the in vitro determination are indicated in Table 1. The following abbreviations are used in Table 1: • In the “Calpain activity” column, +++ stands for a calpain Ki (Ki(calpain)) of ≦40 nM, and ++ means: 40 nM<Ki(Calpain)≦100 nM and + means 100 nM<Ki(Calpain)≦300 nM. • The “Sel. cat. B” column indicates the Ki(cathepsin B)/Ki(calpain) ratio. In this connection, ++ means a Ki(cathepsin B)/Ki(calpain) ratio of ≧30 and + means 10≦Ki(cathepsin B)/Ki(calpain)<30. • The “Sel. cat. K” column indicates the Ki(cathepsin K)/Ki(calpain) ratio. In this connection, ++ means a Ki(cathepsin K)/Ki(calpain) ratio of ≧30 and + means 10≦Ki(cathepsin K)/Ki(calpain)<30. • The “Sel. cat. L” column indicates the Ki(cathepsin L)/Ki(calpain) ratio. In this connection, ++ means a Ki(cathepsin L)/Ki(calpain) ratio of ≧50 and + means 30≦Ki(cathepsin L)/Ki(calpain)<50. • The “Sel. cat. S” column indicates the Ki(cathepsin S)/Ki(calpain) ratio. In this connection, ++ means a Ki(cathepsin S)/Ki(calpain) ratio of ≧100 and + means 50≦Ki(cathepsin S)/Ki(calpain)<100.

[2] = Cytosolic clearance in human liver cytosol; type: in vitro ADME; conditions: 0.5 μM compound, 1 mg/ml human liver cytosol, 37° C., pH 7.5; read-out: human cytCL (cytosolic clearance)
[3] = Cytosolic clearance in cynomolgus monkey liver cytosol; type: in vitro ADME; conditions: female; 0.5 μM compound, 1 mg/ml cynomolgus monkey liver cytosol, 37° C., pH 7.5; read-out: cyno cytCL (cytosolic clearance)
[4] = target: T2, cathepsin B isolated from human liver (Homo sapiens, UniProt P07858); assay: Cathepsin B enzyme inhibition in vitro, kinetic fluorescence assay (selectivity vs calpain); type: biochemical; conditions: ratio of Ki values; Z-Phe-Arg-AMC substrate, pH 6.0
T2 construct: 0.25 nM cathepsin B—isolated from human liver (Calbiochem #219362); purchased Calbiochem 219362; host or cells: human liver (natural source)
Procedure: as §1

[5] = target: T3, cathepsin K activated from recombinant human procathepsin K (Homo sapiens, UniProt P43235); assay: Cathepsin K enzyme inhibition in vitro, kinetic fluorescence assay (selectivity vs calpain); type: biochemical; conditions: ratio of Ki values; Z-Gly-Pro-Arg-AMC substrate, pH 6.0
T3 construct: purchased Calbiochem 342001; host or cells: E. coli
T3 sequence (P43235 115-329): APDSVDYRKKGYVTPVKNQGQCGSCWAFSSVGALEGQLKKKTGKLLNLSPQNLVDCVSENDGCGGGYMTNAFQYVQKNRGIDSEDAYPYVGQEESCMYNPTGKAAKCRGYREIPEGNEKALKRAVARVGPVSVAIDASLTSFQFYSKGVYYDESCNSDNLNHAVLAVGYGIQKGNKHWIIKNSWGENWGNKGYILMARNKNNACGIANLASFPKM
Procedure: as §1

[6] = target: T4, cathepsin L isolated from human liver (Homo sapiens, UniProt P07711); assay: Cathepsin L enzyme inhibition in vitro, kinetic fluorescence assay (selectivity vs calpain); type: biochemical; conditions: ratio of Ki values; Z-Phe-Arg-AMC substrate, pH 6.0
T4 construct: 1 nM cathepsin L—isolated from human liver (Calbiochem #219402); purchased Calbiochem 219402; host or cells: human liver (natural source)
T4 sequence (P07711 114-333): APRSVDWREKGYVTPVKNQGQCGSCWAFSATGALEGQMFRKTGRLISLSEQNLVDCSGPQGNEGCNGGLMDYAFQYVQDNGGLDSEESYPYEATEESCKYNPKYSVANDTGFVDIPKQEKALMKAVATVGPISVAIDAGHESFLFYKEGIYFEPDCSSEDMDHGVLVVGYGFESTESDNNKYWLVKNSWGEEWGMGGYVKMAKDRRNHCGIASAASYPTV
Procedure: as §1

[7] = target: T5, recombinant human cathepsin S (Homo sapiens, UniProt P25774); assay: Cathepsin S enzyme inhibition in vitro, kinetic fluorescence assay (selectivity vs calpain); type: biochemical; conditions: ratio of Ki values; Z-Val-Val-Arg-AMC substrate, pH 6.0
T5 construct: purchased Calbiochem 219343; host or cells: E. coli
T5 sequence (P25774 115-331): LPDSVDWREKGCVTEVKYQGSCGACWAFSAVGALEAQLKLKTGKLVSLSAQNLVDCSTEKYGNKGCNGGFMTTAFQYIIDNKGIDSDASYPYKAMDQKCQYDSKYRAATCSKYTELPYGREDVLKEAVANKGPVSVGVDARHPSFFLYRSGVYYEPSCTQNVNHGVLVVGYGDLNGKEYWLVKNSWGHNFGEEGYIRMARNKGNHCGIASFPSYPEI
Procedure: as §1

CONC(=O)C(=O)C(Cc1ccccc1)NC(=O)c1cccnc1-c1csc(-c2ccccc2)n1 (stereo not drawn) [Example 14, N-(4-(Methoxyamino)-3,4-dioxo-1-phenylbutan-2-yl)-2-(2-phenylthiazol-4-yl)nicotinamide]
Ki [1]: 100 to 300 nM | microsomal CLint at 0.5 μM [2]: < 14 µL/min/mg | microsomal CLint at 0.5 μM [3]: < 18 µL/min/mg

O=C(NC1CC1)C(=O)C(Cc1ccccc1)NC(=O)c1cccnc1-c1csc(-c2ccccc2)n1 (stereo not drawn) [Example 13, N-(4-(Cyclopropylamino)-3,4-dioxo-1-phenylbutan-2-yl)-2-(2-phenylthiazol-4-yl)nicotinamide]
Ki [1]: 100 to 300 nM | Sel cat. B (Ki(cathepsin B)/Ki(calpain) ratio) [4]: ++ (++ means a Ki(cathepsin B)/Ki(calpain) ratio of ≧30) | Sel cat. K (Ki(cathepsin K)/Ki(calpain) ratio) [5]: + (+ means 10≦Ki(cathepsin K)/Ki(calpain)<30) | Sel cat. L (Ki(cathepsin L)/Ki(calpain) ratio) [6]: + (+ means 30≦Ki(cathepsin L)/Ki(calpain)<50) | microsomal CLint at 0.5 μM [2]: < 14 µL/min/mg | microsomal CLint at 0.5 μM [3]: < 18 µL/min/mg

NC(=O)C(=O)C(Cc1ccccc1)NC(=O)c1cccnc1-c1csc(-c2ccccc2)n1 (stereo not drawn) [Example 7, N-(4-Amino-3,4-dioxo-1-phenylbutan-2-yl)-2-(2-phenyl-1,3-thiazol-4-yl)pyridine-3-carboxamide]
Ki [1]: ≤ 40 nM | Sel cat. B (Ki(cathepsin B)/Ki(calpain) ratio) [4]: ++ (++ means a Ki(cathepsin B)/Ki(calpain) ratio of ≧30) | Sel cat. K (Ki(cathepsin K)/Ki(calpain) ratio) [5]: + (+ means 10≦Ki(cathepsin K)/Ki(calpain)<30) | Sel cat. L (Ki(cathepsin L)/Ki(calpain) ratio) [6]: ++ (++ means a Ki(cathepsin L)/Ki(calpain) ratio of ≧50) | Sel cat. S (Ki(cathepsin S)/Ki(calpain) ratio) [7]: ++ (++ means a Ki(cathepsin S)/Ki(calpain) ratio of ≧100)

NC(=O)C(=O)C(Cc1ccccc1)NC(=O)c1cccnc1-c1nc2ccccc2s1 (stereo not drawn) [Example 3, N-(4-Amino-3,4-dioxo-1-phenylbutan-2-yl)-2-(1,3-benzothiazol-2-yl)pyridine-3-carboxamide]
Ki [1]: 40 to 100 nM | Sel cat. B (Ki(cathepsin B)/Ki(calpain) ratio) [4]: + (+ means 10≦Ki(cathepsin B)/Ki(calpain)<30) | Sel cat. K (Ki(cathepsin K)/Ki(calpain) ratio) [5]: + (+ means 10≦Ki(cathepsin K)/Ki(calpain)<30) | Sel cat. L (Ki(cathepsin L)/Ki(calpain) ratio) [6]: ++ (++ means a Ki(cathepsin L)/Ki(calpain) ratio of ≧50) | Sel cat. S (Ki(cathepsin S)/Ki(calpain) ratio) [7]: ++ (++ means a Ki(cathepsin S)/Ki(calpain) ratio of ≧100)

NC(=O)C(=O)C(Cc1ccccc1)NC(=O)c1cccnc1-c1csc(-c2ccc3ccccc3c2)n1 (stereo not drawn) [Example 9, N-(4-Amino-3,4-dioxo-1-phenylbutan-2-yl)-2-[2-(naphthalen-2-yl)-1,3-thiazol-4-yl]pyridine-3-carboxamide]
Ki [1]: 40 to 100 nM | Sel cat. B (Ki(cathepsin B)/Ki(calpain) ratio) [4]: ++ (++ means a Ki(cathepsin B)/Ki(calpain) ratio of ≧30) | Sel cat. K (Ki(cathepsin K)/Ki(calpain) ratio) [5]: + (+ means 10≦Ki(cathepsin K)/Ki(calpain)<30) | Sel cat. L (Ki(cathepsin L)/Ki(calpain) ratio) [6]: ++ (++ means a Ki(cathepsin L)/Ki(calpain) ratio of ≧50) | Sel cat. S (Ki(cathepsin S)/Ki(calpain) ratio) [7]: ++ (++ means a Ki(cathepsin S)/Ki(calpain) ratio of ≧100)
